Measured values reported in patent US10570168B2, “2′ and/or 5′ amino-acid ester phosphoramidate 3′-deoxy adenosine derivatives as anti- cancer compounds” (NuCana plc, priority 2014, dated 2020).
Like-named read-outs stand apart in the source and are kept apart here.

What was measured:
Format in all cases: cell-based
[1] = test system: SW620; experiment: Solid tumour and haematological malignancy assay (CellTiterGlo); details: Homo sapiens; for IC50: read-out: IC50 (absolute IC50); for Emax: read-out: MI %
Procedure, shortened: (§1)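 Cells were treated in duplicate with a 9-point, 3.16-fold dilution series for about 72 h under standard growth conditions. Final concentrations ran from […] to 19.9 nM, with 0.5% DMSO. Viability was read by CellTiter-Glo luminescence.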

[2] = test system: Jurkat; experiment: as above; details: Homo sapiens, read-out: IC50 (absolute IC50)
Procedure, shortened: as §1

[3] = test system: THP-1; experiment: as above; details: Homo sapiens; for IC50: read-out: IC50 (absolute IC50); for Emax: read-out: MI %
Procedure, shortened: as §1

[4] = test system: MOLT-4; experiment: as above; details: Homo sapiens; for IC50: read-out: IC50 (absolute IC50)
Procedure, shortened: as §1

[5] = test system: HS445; experiment: as above; details: for IC50: read-out: IC50 (absolute IC50)
Procedure, shortened: as §1

[6] = test system: K562; experiment: CellTiterGlo viability assay, initial screening; details: Homo sapiens, read-out: IC50 (relative IC50)
Procedure, shortened: (§2)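 Viability is measured with CellTiter-Glo following three days of treatment. Each compound runs as a nine-point titration at 3.16-fold steps, with a lowest final concentration of 19.9 nM, in duplicate wells at 0.5% final DMSO.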

[7] = test system: HL-60; experiment: CellTiterGlo viability assay, initial screening; details: Homo sapiens, read-out: IC50 (relative IC50)
Procedure, shortened: as §2

[8] = test system: HepG2; experiment: CellTiterGlo viability assay, initial screening; details: Homo sapiens, read-out: IC50 (relative IC50)
Procedure, shortened: as §2

[9] = test system: MOLT-4; experiment: CellTiterGlo viability assay, initial screening; details: Homo sapiens, read-out: IC50 (relative IC50)
Procedure, shortened: as §2

[10] = test system: KG-1; experiment: CellTiterGlo viability assay, initial screening; details: Homo sapiens, read-out: IC50 (relative IC50)
Procedure, shortened: as §2

[11] = test system: MCF-7; experiment: CellTiterGlo viability assay, initial screening; details: Homo sapiens, read-out: IC50 (relative IC50)
Procedure, shortened: as §2

[12] = test system: HT29; experiment: Solid tumour and haematological malignancy assay (CellTiterGlo); details: Homo sapiens; for IC50: read-out: IC50 (absolute IC50)
Procedure, shortened: (§3)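 Cells were exposed to compound for 72 hr under standard growth conditions, in duplicate, with 0.5% final DMSO. Viability was then read by CellTiterGlo luminescence.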

[13] = test system: K562; experiment: as above; details: Homo sapiens; for IC50: read-out: IC50 (absolute IC50); for Emax: read-out: MI %
Procedure, shortened: as §3

[14] = test system: HL-60; experiment: as above; details: Homo sapiens; for IC50: read-out: IC50 (absolute IC50)
Procedure, shortened: as §3

[15] = test system: CCRFCEM; experiment: as above; details: Homo sapiens, CCRF-CEM; for IC50: read-out: IC50 (absolute IC50); for Emax: read-out: MI %
Procedure, shortened: as §3

[16] = test system: HepG2; experiment: as above; details: Homo sapiens; for IC50: read-out: IC50 (absolute IC50)
Procedure, shortened: as §3

[17] = test system: MiaPaCa-2; experiment: as above; details: Homo sapiens; for IC50: read-out: IC50 (absolute IC50)
Procedure, shortened: as §3

[18] = test system: KG-1; experiment: as above; details: Homo sapiens; for IC50: read-out: IC50 (absolute IC50); for Emax: read-out: MI %
Procedure, shortened: as §3

[19] = test system: MCF7; experiment: as above; details: Homo sapiens; for IC50: read-out: IC50 (absolute IC50)
Procedure, shortened: as §3

[20] = test system: HEL92.1.7; experiment: as above; details: Homo sapiens; for IC50: read-out: IC50 (absolute IC50)
Procedure, shortened: as §3

With `Nc1ncnc2c1ncn2[C@@H]1O[C@H](CO)C[C@H]1O` [Cordycepin, 3′-deoxyadenosine, reference compound] the IC50 ([1]; SW-620, SW620, 72 hr) was over 100 µM, the Emax ([1]; SW-620, SW620, 72 hr) was 10% and the IC50 ([2]; 72 hr) was over 100 µM. The IC50 ([3]; THP-1, 72 hr) was over 100 µM, the Emax ([3]; THP-1, 72 hr) was -3% and the IC50 ([4]; MOLT-4, 72 hr) was over 100 µM. For the same molecule, the Emax ([4]; MOLT-4, 72 hr, read-out: MI %) was 46%, the IC50 ([5]; Hs 445, HS445, 72 hr) was over 100 µM and the Emax ([5]; Hs 445, HS445, 72 hr, read-out: MI %) was 2%. It also gave an IC50 ([6]; K562, 72 hr) of 15 to 100 µM, an IC50 ([7]; HL-60, 72 hr) of 15 to 100 µM and an IC50 ([8]; HepG2, 72 hr) of 15 to 100 µM. For the same molecule, the IC50 ([9]; MOLT-4, 72 hr) was 15 to 100 µM, the IC50 ([10]; KG-1, 72 hr) was 15 to 100 µM and the IC50 ([11]; MCF7, MCF-7, 72 hr) was 15 to 100 µM. The IC50 ([12]; HT-29, HT29, 72 hr) was over 100 µM, the Emax ([12]; HT-29, HT29, 72 hr, read-out: MI %) was 44% and the IC50 ([13]; K562, 72 hr) was 15 to 100 µM. For the same molecule, the Emax ([13]; K562, 72 hr) was 78%, the IC50 ([14]; HL-60, 72 hr) was over 100 µM and the Emax ([14]; HL-60, 72 hr, read-out: MI %) was 61%. For the same molecule, the IC50 ([15]; CCRFCEM, 72 hr) was over 100 µM, the Emax ([15]; CCRFCEM, 72 hr) was 41% and the IC50 ([16]; HepG2, 72 hr) was over 100 µM. The Emax ([16]; HepG2, 72 hr, read-out: MI %) was 13%, the IC50 ([17]; MIA PaCa-2, MiaPaCa-2, 72 hr) was over 100 µM and the Emax ([17]; MIA PaCa-2, MiaPaCa-2, 72 hr, read-out: MI %) was 35%. It also gave an IC50 ([18]; KG-1, 72 hr) of over 100 µM, an Emax ([18]; KG-1, 72 hr) of 69% and an IC50 ([19]; MCF7, 72 hr) of over 100 µM. The Emax ([19]; MCF7, 72 hr, read-out: MI %) was 77%, the IC50 ([20]; HEL 92.1.7, HEL92.1.7, 72 hr) was 15 to 100 µM and the Emax ([20]; HEL 92.1.7, HEL92.1.7, 72 hr, read-out: MI %) was 88%.

In the case of `COC(=O)C(C)(C)NP(=O)(OC[C@@H]1C[C@@H](O)[C@H](n2cnc3c(N)ncnc32)O1)Oc1cccc2ccccc12` (stereo partly drawn) [E, Methyl 2-(((((2S,4R,5R)-5-(6-amino-9H-purin-9-yl)-4-hydroxytetrahydrofuran-2-yl)-methoxy)(naphthalen-1-yloxy)phosphoryl)amino)-2-methylpropanoate], the IC50 ([1]; SW-620, 72 h) is reported as 15 to 100 µM, the IC50 ([2]; 72 h) is reported as 5 to 15 µM and the IC50 ([3]; THP-1, 72 h) is reported as over 100 µM. For the same molecule, the IC50 ([4]; MOLT-4, 72 h) was 0.1 to 5 µM, the IC50 ([5]; Hs 445, 72 h) was 15 to 100 µM and the IC50 ([6]; K562, 72 h) was over 100 µM. For the same molecule, the IC50 ([7]; HL-60, 72 h) was 15 to 100 µM, the IC50 ([8]; HepG2, 72 h) was 15 to 100 µM and the IC50 ([9]; MOLT-4, 72 h) was 5 to 15 µM. It also gave an IC50 ([10]; KG-1, 72 h) of 15 to 100 µM, an IC50 ([11]; MCF7, 72 h) of 15 to 100 µM and an IC50 ([12]; HT-29, 72 h) of 15 to 100 µM. The IC50 ([13]; K562, 72 h) was 5 to 15 µM, the Emax ([13]; K562, 72 h) was 90% and the IC50 ([14]; HL-60, 72 h) was 5 to 15 µM. It also gave an IC50 ([15]; 72 h) of 0.1 to 5 µM, an Emax ([15]; 72 h) of 100% and an IC50 ([16]; HepG2, 72 h) of 15 to 100 µM. For the same molecule, the IC50 ([17]; MIA PaCa-2, 72 h) was 15 to 100 µM, the IC50 ([18]; KG-1, 72 h) was 15 to 100 µM and the Emax ([18]; KG-1, 72 h) was 100%. The IC50 ([19]; MCF7, 72 h) was 5 to 15 µM and the IC50 ([20]; HEL 92.1.7, 72 h) was 15 to 100 µM.

Work on `CCOC(=O)CCc1ccccc1OP(=O)(N[C@@H](C)C(=O)OCc1ccccc1)OC[C@@H]1C[C@@H](O)[C@H](n2cnc3c(N)ncnc32)O1` (stereo partly drawn) [F, (2S)-benzyl 2-(((((2S,4R,5R)-5-(6-amino-9H-purin-9-yl)-4-hydroxytetrahydrofuran-2-yl)methoxy)(2-(3-ethoxy-3-oxopropyl)phenoxy)phosphoryl)amino)propanoate] yielded an IC50 ([1]; SW-620, 72 h) of 15 to 100 µM, an Emax ([1]; SW-620, 72 h) of 90% and an IC50 ([2]; 72 h) of 0.1 to 5 µM. It also gave an IC50 ([3]; THP-1, 72 h) of 15 to 100 µM, an Emax ([3]; THP-1, 72 h) of 100% and an IC50 ([4]; MOLT-4, 72 h) of 0.1 to 5 µM. For the same molecule, the IC50 ([5]; Hs 445, 72 h) was 15 to 100 µM, the IC50 ([6]; K562, 72 h) was 15 to 100 µM and the IC50 ([7]; HL-60, 72 h) was 15 to 100 µM. For the same molecule, the IC50 ([8]; HepG2, 72 h) was 15 to 100 µM, the IC50 ([9]; MOLT-4, 72 h) was 0.1 to 5 µM and the IC50 ([10]; KG-1, 72 h) was 15 to 100 µM. The IC50 ([11]; MCF7, 72 h) was 5 to 15 µM, the IC50 ([12]; HT-29, 72 h) was 15 to 100 µM and the IC50 ([13]; K562, 72 h) was 0.1 to 5 µM. For the same molecule, the IC50 ([14]; HL-60, 72 h) was 5 to 15 µM, the IC50 ([15]; 72 h) was 0.1 to 5 µM and the IC50 ([16]; HepG2, 72 h) was 15 to 100 µM. The IC50 ([17]; MIA PaCa-2, 72 h) was 5 to 15 µM, the IC50 ([18]; KG-1, 72 h) was 15 to 100 µM and the IC50 ([19]; MCF7, 72 h) was 5 to 15 µM. It also gave an IC50 ([20]; HEL 92.1.7, 72 h) of 5 to 15 µM.
